Reference: patent US10167257B2, “Indole derivatives for use in medicine” (IOmet Pharma Ltd., priority 2014, dated 2019)

What was measured:
[1] = target: T1, TDO (A172 cells) (Homo sapiens, UniProt P48775); assay: TDO cell-based assay (A172), kynurenine production; conditions: A172 human glioblastoma cells, 500 μM L-Trp, 48 h, kynurenine by absorbance at 490 nm
T1 construct: This assay utilised cancer cells which expressed either TDO or IDO; host or cells: A172 human glioblastoma cells
Procedure, shortened: (§1)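 Kynurenine output was read at 490 nm after 5 min with 1% Ehrlich's reagent, using supernatants from 48 h, 37 °C cultures containing 500 μM L-Trp and test compound. TDO activity came from A172 cells. IDO activity came from SKOV-3 cells, whose expression was induced by adding 500 ng/ml IFNγ.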

[2] = target: T2, IDO (SKOV-3 cells) (Homo sapiens, UniProt P14902); assay: IDO cell-based assay (SKOV-3, IFNγ-induced), kynurenine production; conditions: SKOV-3 ovary adenocarcinoma cells, IFNγ 500 ng/ml, 500 μM L-Trp, 48 h, kynurenine by absorbance at 490 nm
T2 construct: This assay utilised cancer cells which expressed either TDO or IDO; host or cells: SKOV-3 ovary adenocarcinoma cells, IFNγ-induced
Procedure, shortened: as §1

T2 sequence (P14902 whole entry): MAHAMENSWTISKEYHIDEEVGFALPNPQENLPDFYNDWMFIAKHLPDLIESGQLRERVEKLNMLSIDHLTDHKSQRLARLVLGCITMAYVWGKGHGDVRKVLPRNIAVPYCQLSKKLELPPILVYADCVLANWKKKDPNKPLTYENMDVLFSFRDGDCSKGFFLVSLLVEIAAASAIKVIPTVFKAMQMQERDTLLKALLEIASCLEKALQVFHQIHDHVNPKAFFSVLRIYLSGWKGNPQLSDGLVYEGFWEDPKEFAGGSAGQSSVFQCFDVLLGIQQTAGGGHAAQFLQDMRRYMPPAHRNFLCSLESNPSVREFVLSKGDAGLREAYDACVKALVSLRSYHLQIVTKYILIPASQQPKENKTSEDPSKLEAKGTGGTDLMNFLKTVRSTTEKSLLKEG
T1 sequence (P48775 whole entry): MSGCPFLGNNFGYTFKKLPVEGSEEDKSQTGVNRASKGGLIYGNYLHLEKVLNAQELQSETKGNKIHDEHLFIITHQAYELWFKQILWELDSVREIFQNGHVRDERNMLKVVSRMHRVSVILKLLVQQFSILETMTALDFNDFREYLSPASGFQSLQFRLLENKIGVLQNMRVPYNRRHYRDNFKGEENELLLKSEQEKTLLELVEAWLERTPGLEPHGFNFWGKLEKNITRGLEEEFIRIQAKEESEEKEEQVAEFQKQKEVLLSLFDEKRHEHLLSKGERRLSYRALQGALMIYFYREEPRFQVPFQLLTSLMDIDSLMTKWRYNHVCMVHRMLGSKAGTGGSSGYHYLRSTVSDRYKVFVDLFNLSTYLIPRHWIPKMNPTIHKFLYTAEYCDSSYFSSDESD

Row | TDO cellular assay (A172) pIC50 [1] | IDO cellular assay (SKOV3) pIC50 [2] | SMILES
1 | − (− = pIC50 <4.50) | ++ (++ = pIC50 5.00-<5.50) | Cc1nnc(C(C)NC(=O)c2cc3cc(Cl)ccc3[nH]2)o1 (centres unmarked) [Compound 184]
2 | + (+ = pIC50 4.50-<5.00) | + (+ = pIC50 4.50-<5.00) | C[C@@H](NC(=O)c1cc2ccc(O)cc2[nH]1)c1ccccc1 [Compound 185]
3 | − (− = pIC50 <4.50) | +++ (+++ = pIC50 ≥5.50) | COc1ccc2[nH]c(C(=O)NC(C)c3cnn(C)c3)cc2c1 (centres unmarked) [Compound 186]
4 | − (− = pIC50 <4.50) | + (+ = pIC50 4.50-<5.00) | O=C(NC1(c2ccccc2)CC1)c1cc2cc(O)ccc2[nH]1 [Compound 187]
5 | + (+ = pIC50 4.50-<5.00) | +++ (+++ = pIC50 ≥5.50) | O=C(NC1(c2ccccc2)CC1)c1cc2cc(Cl)cc(F)c2[nH]1 [Compound 188]
6 | − (− = pIC50 <4.50) | ++ (++ = pIC50 5.00-<5.50) | O=C(NC1(c2ccccc2)CC1)c1cc2ccc(C(F)F)cc2[nH]1 [Compound 189]
7 | − (− = pIC50 <4.50) | + (+ = pIC50 4.50-<5.00) | CS(=O)(=O)Nc1ccc2cc(C(=O)NC3(c4ccccc4)CC3)[nH]c2c1 [Compound 190]
8 | − (− = pIC50 <4.50) | +++ (+++ = pIC50 ≥5.50) | Cn1cc(C2(NC(=O)c3cc4c(F)c(Cl)ccc4[nH]3)CC2)cn1 [Compound 191]
9 | − (− = pIC50 <4.50) | + (+ = pIC50 4.50-<5.00) | CC(NC(=O)c1cc2ccc(C(F)F)cc2[nH]1)c1cnn(C)c1 (centres unmarked) [Compound 192]
10 | − (− = pIC50 <4.50) | +++ (+++ = pIC50 ≥5.50) | CC(NC(=O)c1cc2c(F)c(Cl)ccc2[nH]1)c1cnn(C)c1 (centres unmarked) [Compound 193]
11 | − (− = pIC50 <4.50) | +++ (+++ = pIC50 ≥5.50) | O=C(NC1(c2ccccc2)CC1)c1cc2c(F)c(Cl)ccc2[nH]1 [Compound 194]
12 | − (− = pIC50 <4.50) | ++ (++ = pIC50 5.00-<5.50) | COCCn1cc(C(C)NC(=O)c2cc3cc(Cl)ccc3[nH]2)cn1 (centres unmarked) [Compound 195]
13 | − (− = pIC50 <4.50) | + (+ = pIC50 4.50-<5.00) | Cn1cc(C2(NC(=O)c3cc4ccc(O)cc4[nH]3)CC2)cn1 [Compound 196]
14 | − (− = pIC50 <4.50) | + (+ = pIC50 4.50-<5.00) | COCCn1cc(C(C)NC(=O)c2cc3cc(C#N)ccc3[nH]2)cn1 (centres unmarked) [Compound 197]
15 | − (− = pIC50 <4.50) | +++ (+++ = pIC50 ≥5.50) | Cc1c(C2(NC(=O)c3cc4cc(Cl)ccc4[nH]3)CC2)cnn1C [Compound 198]
16 | − (− = pIC50 <4.50) | +++ (+++ = pIC50 ≥5.50) | Cc1noc(C(C)NC(=O)c2cc3cc(Cl)ccc3[nH]2)n1 (centres unmarked) [Compound 199]
17 | − (− = pIC50 <4.50) | +++ (+++ = pIC50 ≥5.50) | Cc1nc(C(C)NC(=O)c2cc3cc(Cl)ccc3[nH]2)co1 (centres unmarked) [Compound 200]
18 | − (− = pIC50 <4.50) | + (+ = pIC50 4.50-<5.00) | CC(NC(=O)c1cc2cc(Cl)ccc2[nH]1)c1ccn(C)n1 (centres unmarked) [Compound 201]
19 | − (− = pIC50 <4.50) | +++ (+++ = pIC50 ≥5.50) | CC(NC(=O)c1cc2cc(Cl)cc(F)c2[nH]1)c1cnn(C)c1 (centres unmarked) [Compound 202]
20 | + (+ = pIC50 4.50-<5.00) | ++ (++ = pIC50 5.00-<5.50) | CC(NC(=O)c1cc2cc(Cl)c(F)cc2[nH]1)c1cnn(C)c1 (centres unmarked) [Compound 203]
21 | − (− = pIC50 <4.50) | +++ (+++ = pIC50 ≥5.50) | Cn1cc(C2(NC(=O)c3cc4cc(Cl)c(F)cc4[nH]3)CC2)cn1 [Compound 204]
22 | − (− = pIC50 <4.50) | +++ (+++ = pIC50 ≥5.50) | Cn1cc(C2(NC(=O)c3cc4cc(Cl)cc(F)c4[nH]3)CC2)cn1 [Compound 205]
23 | − (− = pIC50 <4.50) | + (+ = pIC50 4.50-<5.00) | Cn1cc(C2(NC(=O)c3cc4ccc(C(F)F)cc4[nH]3)CC2)cn1 [Compound 206]
24 | + (+ = pIC50 4.50-<5.00) | +++ (+++ = pIC50 ≥5.50) | COc1ccc(-n2cc(C(C)NC(=O)c3cc4cc(Cl)ccc4[nH]3)cn2)cc1OC (centres unmarked) [Compound 207]
25 | + (+ = pIC50 4.50-<5.00) | +++ (+++ = pIC50 ≥5.50) | C[C@@H](NC(=O)c1cc2cc(Cl)c(F)cc2[nH]1)c1ccccc1 [Compound 208]

Row | TDO cellular assay (A172) pIC50 [1] | IDO cellular assay (SKOV3) pIC50 [2] | SMILES
26 | ++ (++ = pIC50 5.00-<5.50) | +++ (+++ = pIC50 ≥5.50) | O=C(NC1(c2ccccc2)CC1)c1cc2cc(Cl)c(F)cc2[nH]1 [Compound 209]
27 | + (+ = pIC50 4.50-<5.00) | +++ (+++ = pIC50 ≥5.50) | O=C(NC1(c2ccccc2)COC1)c1cc2cc(Cl)c(F)cc2[nH]1 [Compound 210]
28 | − (− = pIC50 <4.50) | + (+ = pIC50 4.50-<5.00) | Cn1cc(C2(NC(=O)c3cc4cc(O)ccc4[nH]3)CC2)cn1 [Compound 211]
29 | + (+ = pIC50 4.50-<5.00) | ++ (++ = pIC50 5.00-<5.50) | Cc1nc(C(C)NC(=O)c2cc3cc(Cl)ccc3[nH]2)no1 (centres unmarked) [Compound 212]
30 | − (− = pIC50 <4.50) | +++ (+++ = pIC50 ≥5.50) | Cn1cc(C2(NC(=O)c3cc4cc(Cl)ccc4[nH]3)COC2)cn1 [Compound 213]
31 | − (− = pIC50 <4.50) | +++ (+++ = pIC50 ≥5.50) | CCn1cc(C2(NC(=O)c3cc4cc(Cl)ccc4[nH]3)CC2)cn1 [Compound 214]
32 | − (− = pIC50 <4.50) | +++ (+++ = pIC50 ≥5.50) | Cn1cc(C2(NC(=O)c3cc4cc(Cl)ccc4[nH]3)CCC2)cn1 [Compound 215]
33 | − (− = pIC50 <4.50) | + (+ = pIC50 4.50-<5.00) | Cc1nc(C(C)NC(=O)c2cc3cc(C#N)ccc3[nH]2)no1 (centres unmarked) [Compound 216]
34 | − (− = pIC50 <4.50) | +++ (+++ = pIC50 ≥5.50) | Cc1cc(C2(NC(=O)c3cc4cc(Cl)ccc4[nH]3)CC2)no1 [Compound 217]
35 | − (− = pIC50 <4.50) | + (+ = pIC50 4.50-<5.00) | O=C(NC1(c2ccccc2)COC1)c1cc2ccc(C(F)F)cc2[nH]1 [Compound 218]
36 | − (− = pIC50 <4.50) | +++ (+++ = pIC50 ≥5.50) | Cc1cc(C2(NC(=O)c3cc4cc(C#N)ccc4[nH]3)CC2)no1 [Compound 219]
37 | − (− = pIC50 <4.50) | +++ (+++ = pIC50 ≥5.50) | O=C(NC1(c2ccccc2)COC1)c1cc2c(F)c(Cl)ccc2[nH]1 [Compound 220]
38 | − (− = pIC50 <4.50) | + (+ = pIC50 4.50-<5.00) | Cc1noc(C(C)NC(=O)c2cc3cc(C#N)ccc3[nH]2)n1 (centres unmarked) [Compound 221]
39 | − (− = pIC50 <4.50) | ++ (++ = pIC50 5.00-<5.50) | Cc1nc(C(C)NC(=O)c2cc3cc(C#N)ccc3[nH]2)co1 (centres unmarked) [Compound 222]
40 | − (− = pIC50 <4.50) | +++ (+++ = pIC50 ≥5.50) | O=C(NC1(c2ccncc2)CC1)c1cc2cc(Cl)ccc2[nH]1 [Compound 223]
41 | ++ (++ = pIC50 5.00-<5.50) | ++ (++ = pIC50 5.00-<5.50) | Cn1ccc(C2(NC(=O)c3cc4cc(Cl)ccc4[nH]3)CC2)n1 [Compound 224]
42 | − (− = pIC50 <4.50) | +++ (+++ = pIC50 ≥5.50) | Cc1nc(C2(NC(=O)c3cc4cc(Cl)ccc4[nH]3)CC2)co1 [Compound 225]
43 | − (− = pIC50 <4.50) | +++ (+++ = pIC50 ≥5.50) | Cc1nc(C2(NC(=O)c3cc4cc(C#N)ccc4[nH]3)CC2)co1 [Compound 226]
44 | ++ (++ = pIC50 5.00-<5.50) | +++ (+++ = pIC50 ≥5.50) | O=C(NC1(c2ccccc2)COC1)c1cc2cc(Cl)cc(F)c2[nH]1 [Compound 227]
45 | ++ (++ = pIC50 5.00-<5.50) | ++ (++ = pIC50 5.00-<5.50) | Cc1ncc(C(C)NC(=O)c2cc3cc(Cl)ccc3[nH]2)o1 (centres unmarked) [Compound 228]
46 | +++ (+++ = pIC50 ≥5.50) | +++ (+++ = pIC50 ≥5.50) | Cc1ncc(C(C)NC(=O)c2cc3cc(C#N)ccc3[nH]2)o1 (centres unmarked) [Compound 229]
47 | − (− = pIC50 <4.50) | +++ (+++ = pIC50 ≥5.50) | O=C(NC1(c2ccccc2)CCCC1)c1cc2cc(Cl)ccc2[nH]1 [Compound 230]
48 | − (− = pIC50 <4.50) | +++ (+++ = pIC50 ≥5.50) | N#Cc1ccc2[nH]c(C(=O)NC3(c4ccccc4)CCCC3)cc2c1 [Compound 231]
49 | − (− = pIC50 <4.50) | + (+ = pIC50 4.50-<5.00) | Cc1nnc(C2(NC(=O)c3cc4cc(Cl)ccc4[nH]3)CC2)[nH]1 [Compound 233]
